Measured values taken from patent US20250186541A1, “DLL3 TARGETING PEPTIDES AND CONSTRUCTS THEREOF” (MARIANA ONCOLOGY INC., priority 2023, published 2025).
Bridge positions count the residues as written; N and C are the ends. Square brackets hold non-standard residues; d marks the D form. Peptide text beside a SMILES is read from it. * marks the point of attachment. DOTA = O=C(O)CN1CCN(CC(=O)O)CCN(CC(=O)*)CCN(CC(=O)O)CC1; Lys(Me3) = C[N+](C)(C)CCCC[C@H](N)C(=O)O; 1Nal = N[C@@H](Cc1cccc2ccccc12)C(=O)O; NMeQ = CN[C@@H](CCC(N)=O)C(=O)O; Chg = N[C@H](C(=O)O)C1CCCCC1; Tle = CC(C)(C)[C@H](N)C(=O)O; αMeP = C[C@@]1(C(=O)O)CCCN1; Nle = CCCC[C@H](N)C(=O)O; Ahx = NCCCCCC(=O)O

Each molecule was assayed against T1, human DLL3 (Homo sapiens, UniProt Q9NYJ7) (assay: Affinity determination by Surface Plasmon Resonance (SPR), Biacore, 1:1 binding model). Settings: biotinylated human DLL3 on streptavidin chip, 25° C.; NB = nonbinding.
T1 construct: biotin (biotinylated)
T1 sequence (Q9NYJ7 27-618): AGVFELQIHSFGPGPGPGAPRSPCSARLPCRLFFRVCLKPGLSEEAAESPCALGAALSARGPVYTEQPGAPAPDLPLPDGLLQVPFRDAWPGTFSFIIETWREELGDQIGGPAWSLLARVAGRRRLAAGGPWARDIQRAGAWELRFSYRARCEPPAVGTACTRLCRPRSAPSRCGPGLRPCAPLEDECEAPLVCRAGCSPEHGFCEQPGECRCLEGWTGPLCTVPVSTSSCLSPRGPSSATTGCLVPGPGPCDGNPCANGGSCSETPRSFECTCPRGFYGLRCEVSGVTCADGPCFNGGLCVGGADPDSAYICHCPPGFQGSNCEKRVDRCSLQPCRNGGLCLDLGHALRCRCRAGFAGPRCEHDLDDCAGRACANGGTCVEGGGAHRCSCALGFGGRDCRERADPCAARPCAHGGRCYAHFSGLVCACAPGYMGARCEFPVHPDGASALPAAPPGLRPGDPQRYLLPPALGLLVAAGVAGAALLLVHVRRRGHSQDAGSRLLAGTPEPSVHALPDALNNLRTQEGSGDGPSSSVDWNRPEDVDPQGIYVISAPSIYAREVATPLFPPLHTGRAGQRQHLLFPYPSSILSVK
Procedure, shortened: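 SPR with biotinylated human DLL3 captured on a streptavidin chip, with a reference surface subtracted. Samples were injected at several concentrations at 100 μL/min in phosphate buffer with 137 mM NaCl, 2.7 mM KCl, 0.05% P20 and 2% DMSO. Kinetic and affinity constants came from a 1:1 binding fit.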

Compound	Kd [nM]
CC(C)C[C@@H]1NC(=O)[C@H](Cc2c[nH]c3ccccc23)NC(=O)[C@@H](NC(=O)[C@H](CC(=O)O)NC(=O)[C@H](CO)NC(=O)CCCCCNC(=O)CN2CCN(CC(=O)O)CCN(CC(=O)O)CCN(CC(=O)O)CC2)CSSC[C@@H](C(=O)N2CCC[C@H]2C(=O)N[C@@H](Cc2ccccc2)C(=O)N[C@@H](CC(=O)O)C(=O)N[C@H](CCCCN)C(N)=O)NC(=O)[C@H](CC(N)=O)NC(=O)[C@H](Cc2c[nH]c3ccccc23)NC(=O)[C@H](CCC(N)=O)NC1=O [compound 73, DOTA-Ahx-S-D-C(3)-W-L-Q-W-N-C(3)-P-F-D-(D-Lys)-NH2] ({DOTA-Ahx}-SDCWLQWNCPFD[dK]-NH2; disulfide 3-9)	> 100
CC(=O)N[C@H](C(=O)N[C@@H](CO)C(=O)N[C@@H](CC(=O)O)C(=O)N[C@H]1CSSC[C@@H](C(=O)N2CCC[C@H]2C(=O)N[C@@H](Cc2ccccc2)C(=O)N[C@@H](CC(=O)O)C(=O)N[C@H](CCCCNC(=O)CN2CCN(CC(=O)O)CCN(CC(=O)O)CCN(CC(=O)O)CC2)C(N)=O)NC(=O)[C@H](CC(N)=O)NC(=O)[C@H](Cc2c[nH]c3ccccc23)NC(=O)[C@H](CCC(N)=O)NC(=O)[C@H](CC(C)C)NC(=O)[C@H](Cc2c[nH]c3ccccc23)NC1=O)C(C)(C)C [compound 76, Ac-tBuGly-S-D-C(3)-W-L-Q-W-N-C(3)-P-F-D-D-Lys(DOTA)-CONH2] (Ac-[Tle]SDCWLQWNCPFD[dK](DOTA)-NH2; disulfide 4-10)	12
CC(=O)N[C@@H](CO)C(=O)N[C@@H](CO)C(=O)N[C@@H](CC(=O)O)C(=O)N[C@H]1CSSC[C@@H](C(=O)N2CCC[C@H]2C(=O)N[C@@H](Cc2ccccc2)C(=O)N[C@@H](CC(=O)O)C(=O)N[C@H](CCCCNC(=O)CN2CCN(CC(=O)O)CCN(CC(=O)O)CCN(CC(=O)O)CC2)C(N)=O)NC(=O)[C@H](CC(N)=O)NC(=O)[C@H](Cc2c[nH]c3ccccc23)NC(=O)[C@H](CCC(N)=O)NC(=O)[C@H](CC(C)C)NC(=O)[C@H](Cc2c[nH]c3ccccc23)NC1=O [compound 78, Ac-Ser-S-D-C(3)-W-L-Q-W-N-C(3)-P-F-D-D-Lys(DOTA)-CONH2] (Ac-SSDCWLQWNCPFD[dK](DOTA)-NH2; disulfide 4-10)	16
CC(=O)N[C@@H](CCC(=O)O)C(=O)N[C@@H](CO)C(=O)N[C@@H](CC(=O)O)C(=O)N[C@H]1CSSC[C@@H](C(=O)N2CCC[C@H]2C(=O)N[C@@H](Cc2ccccc2)C(=O)N[C@@H](CC(=O)O)C(=O)N[C@H](CCCCNC(=O)CN2CCN(CC(=O)O)CCN(CC(=O)O)CCN(CC(=O)O)CC2)C(N)=O)NC(=O)[C@H](CC(N)=O)NC(=O)[C@H](Cc2c[nH]c3ccccc23)NC(=O)[C@H](CCC(N)=O)NC(=O)[C@H](CC(C)C)NC(=O)[C@H](Cc2c[nH]c3ccccc23)NC1=O [compound 81, Ac-Glu-S-D-C(3)-W-L-Q-W-N-C(3)-P-F-D-D-Lys(DOTA)-CONH2] (Ac-ESDCWLQWNCPFD[dK](DOTA)-NH2; disulfide 4-10)	12.3
CC(=O)N[C@@H](CCCC[N+](C)(C)C)C(=O)N[C@@H](CO)C(=O)N[C@@H](CC(=O)O)C(=O)N[C@H]1CSSC[C@@H](C(=O)N2CCC[C@H]2C(=O)N[C@@H](Cc2ccccc2)C(=O)N[C@@H](CC(=O)O)C(=O)N[C@H](CCCCNC(=O)CN2CCN(CC(=O)O)CCN(CC(=O)O)CCN(CC(=O)O)CC2)C(N)=O)NC(=O)[C@H](CC(N)=O)NC(=O)[C@H](Cc2c[nH]c3ccccc23)NC(=O)[C@H](CCC(N)=O)NC(=O)[C@H](CC(C)C)NC(=O)[C@H](Cc2c[nH]c3ccccc23)NC1=O [compound 85, Ac-Lys(Me)3-S-D-C(3)-W-L-Q-W-N-C(3)-P-F-D-D-Lys(DOTA)-CONH2] (Ac-[Lys(Me3)]SDCWLQWNCPFD[dK](DOTA)-NH2; disulfide 4-10)	14
CC(=O)N[C@@H](CO)C(=O)N[C@@H](CC(=O)O)C(=O)N[C@H]1CSSC[C@@H](C(=O)N2CCC[C@H]2C(=O)N[C@@H](Cc2ccccc2)C(=O)N[C@@H](CC(=O)O)C(=O)N[C@@H](CCCCNC(=O)CN2CCN(CC(=O)O)CCN(CC(=O)O)CCN(CC(=O)O)CC2)C(N)=O)NC(=O)[C@H](CC(N)=O)NC(=O)[C@H](Cc2c[nH]c3ccccc23)NC(=O)[C@H](CCC(N)=O)NC(=O)[C@H](CC(C)C)NC(=O)[C@H](Cc2c[nH]c3ccccc23)NC1=O [compound 86, Ac-S-D-C(3)-W-L-Q-W-N-C(3)-P-F-D-[L-Lys(DOTA)]-NH2] (Ac-SDCWLQWNCPFDK(DOTA)-NH2; disulfide 3-9)	12.3
CC(C)C[C@@H]1NC(=O)[C@H](Cc2c[nH]c3ccccc23)NC(=O)[C@@H](NC(=O)[C@H](CC(=O)O)NC(=O)[C@H](CO)NC(=O)CCCCCNC(=O)CN2CCN(CC(=O)O)CCN(CC(=O)O)CCN(CC(=O)O)CC2)CSSC[C@@H](C(=O)N2CCC[C@H]2C(=O)N[C@@H](Cc2ccccc2)C(=O)N[C@@H](CC(=O)O)C(N)=O)NC(=O)[C@H](CC(N)=O)NC(=O)[C@H](Cc2c[nH]c3ccccc23)NC(=O)[C@H](CCC(N)=O)N(C)C1=O [compound 93, DOTA-Ahx-S-D-C(3)-W-L-(NMe-Gln)-W-N-C(3)-P-F-D-CONH2] ({DOTA-Ahx}-SDCWL[NMeQ]WNCPFD-NH2; disulfide 3-9)	> 100
CC(=O)N[C@H](C(=O)N[C@@H](CO)C(=O)N[C@@H](CC(=O)O)C(=O)N[C@H]1CSSC[C@@H](C(=O)N2CCC[C@H]2C(=O)N[C@@H](Cc2ccccc2)C(=O)N[C@@H](CC(=O)O)C(N)=O)NC(=O)[C@H](CC(N)=O)NC(=O)[C@H](Cc2c[nH]c3ccccc23)NC(=O)[C@H](CCC(N)=O)NC(=O)[C@H](CC(C)C)NC(=O)[C@H](CCCCNC(=O)CN2CCN(CC(=O)O)CCN(CC(=O)O)CCN(CC(=O)O)CC2)NC1=O)C1CCCCC1 [compound 97, Ac-(Chg)-S-D-C(3)-[L-Lys(DOTA)]-L-Q-W-N-C(3)-P-F-D-CONH2] (Ac-[Chg]SDCK(DOTA)LQWNCPFD-NH2; disulfide 4-10)	> 100

These reach a lower Kd. Values come first.

Kd [nM]	Compound
11	CC(C)C[C@@H]1NC(=O)[C@H](Cc2c[nH]c3ccccc23)NC(=O)[C@@H](NC(=O)[C@H](CC(=O)O)NC(=O)[C@H](CO)NC(=O)CCCCCNC(=O)CN2CCN(CC(=O)O)CCN(CC(=O)O)CCN(CC(=O)O)CC2)CSSC[C@@H](C(=O)N2CCC[C@H]2C(=O)N[C@@H](Cc2ccccc2)C(=O)N[C@@H](CC(=O)O)C(N)=O)NC(=O)[C@H](CC(N)=O)NC(=O)[C@H](Cc2c[nH]c3ccccc23)NC(=O)[C@H](CCC(N)=O)NC1=O [compound 72, DOTA-Ahx-S-D-C(3)-W-L-Q-W-N-C(3)-P-F-D-CONH2] ({DOTA-Ahx}-SDCWLQWNCPFD-NH2; disulfide 3-9)
10	CC(=O)N[C@@H](Cc1ccccc1)C(=O)N[C@@H](CO)C(=O)N[C@@H](CC(=O)O)C(=O)N[C@H]1CSSC[C@@H](C(=O)N2CCC[C@H]2C(=O)N[C@@H](Cc2ccccc2)C(=O)N[C@@H](CC(=O)O)C(=O)N[C@H](CCCCNC(=O)CN2CCN(CC(=O)O)CCN(CC(=O)O)CCN(CC(=O)O)CC2)C(N)=O)NC(=O)[C@H](CC(N)=O)NC(=O)[C@H](Cc2c[nH]c3ccccc23)NC(=O)[C@H](CCC(N)=O)NC(=O)[C@H](CC(C)C)NC(=O)[C@H](Cc2c[nH]c3ccccc23)NC1=O [compound 80, Ac-Phe-S-D-C(3)-W-L-Q-W-N-C(3)-P-F-D-D-Lys(DOTA)-CONH2] (Ac-FSDCWLQWNCPFD[dK](DOTA)-NH2; disulfide 4-10)
9	CC(=O)NCCCCCC(=O)N[C@@H](CO)C(=O)N[C@@H](CC(=O)O)C(=O)N[C@H]1CSSC[C@@H](C(=O)N2CCC[C@H]2C(=O)N[C@@H](Cc2ccccc2)C(=O)N[C@@H](CC(=O)O)C(=O)N[C@H](CCCCNC(=O)CN2CCN(CC(=O)O)CCN(CC(=O)O)CCN(CC(=O)O)CC2)C(N)=O)NC(=O)[C@H](CC(N)=O)NC(=O)[C@H](Cc2c[nH]c3ccccc23)NC(=O)[C@H](CCC(N)=O)NC(=O)[C@H](CC(C)C)NC(=O)[C@H](Cc2c[nH]c3ccccc23)NC1=O [compound 74, Ac-Ahx-S-D-C(3)-W-L-Q-W-N-C(3)-P-F-D-D-Lys(DOTA)-CONH2] (Ac-[Ahx]SDCWLQWNCPFD[dK](DOTA)-NH2; disulfide 4-10)
9	CCCC[C@H](NC(C)=O)C(=O)N[C@@H](CO)C(=O)N[C@@H](CC(=O)O)C(=O)N[C@H]1CSSC[C@@H](C(=O)N2CCC[C@H]2C(=O)N[C@@H](Cc2ccccc2)C(=O)N[C@@H](CC(=O)O)C(=O)N[C@H](CCCCNC(=O)CN2CCN(CC(=O)O)CCN(CC(=O)O)CCN(CC(=O)O)CC2)C(N)=O)NC(=O)[C@H](CC(N)=O)NC(=O)[C@H](Cc2c[nH]c3ccccc23)NC(=O)[C@H](CCC(N)=O)NC(=O)[C@H](CC(C)C)NC(=O)[C@H](Cc2c[nH]c3ccccc23)NC1=O [compound 79, Ac-Nle-S-D-C(3)-W-L-Q-W-N-C(3)-P-F-D-D-Lys(DOTA)-CONH2] (Ac-[Nle]SDCWLQWNCPFD[dK](DOTA)-NH2; disulfide 4-10)
0.29	CC(=O)N[C@H](C(=O)N[C@@H](CO)C(=O)N[C@@H](CC(=O)O)C(=O)N[C@H]1CSSC[C@@H](C(=O)N2CCC[C@@]2(C)C(=O)N[C@@H](Cc2ccccc2)C(=O)N[C@@H](CC(=O)O)C(=O)N[C@H](CCCCNC(=O)CN2CCN(CC(=O)O)CCN(CC(=O)O)CCN(CC(=O)O)CC2)C(N)=O)NC(=O)[C@H](CC(N)=O)NC(=O)[C@H](Cc2c[nH]c3ccccc23)NC(=O)[C@H](CCC(N)=O)NC(=O)[C@H](CC(C)C)NC(=O)[C@H](Cc2cccc3ccccc23)NC1=O)C1CCCCC1 [compound 95, Ac-(Chg)-S-D-C(3)-(1Nal)-L-Q-W-N-C(3)-(aMe-P)-F-D-D-Lys(DOTA)-CONH2] (Ac-[Chg]SDC[1Nal]LQWNC[αMeP]FD[dK](DOTA)-NH2; disulfide 4-10)
